melting point [°C]	Structure (SMILES)
240 to 241	CCOC(=O)c1csc(-c2cc3cccc(NS(=O)(=O)c4cccs4)c3[nH]2)n1
131 to 134	COc1cccc(Nc2cc(=S)ss2)c1
189 to 192	CN1[C@H](Cc2ccc(C(N)=NO)cc2)[C@@H]2C(=O)N(Cc3ccccc3)C(=O)[C@@H]2C1(C)C (racemic)
241	COc1cc(C(=O)c2nc(C(N)=O)c3ccccn23)ccc1N
185 to 187	CC(C)Nc1nc2ccccc2n2c(C(F)(F)F)nnc12
128 to 130	CCN(CC)c1ccc(C(c2ccc(N(C)C)cc2C(=O)O)c2ccc(N(C)C)cc2N(C)C)cc1 (stereo unspecified)
99 to 100	O=C(O)c1ccc(Oc2ccc3c(c2)CCN(CCN2CCCC2)C3=O)cc1
121 to 122	CC(C)(C)OC(=O)NC(CO)COc1noc2ccc(Cl)cc12 (stereo unspecified)
201 to 202	CN(C)c1nc(N)c(C#N)nc1C#N
169 to 171	CC(C)(C)c1cc(NC(=O)NCCCl)cc(C(C)(C)C)c1O
212 to 214	COc1ccc(-c2cc3nccnc3[nH]2)cc1OC
103 to 106	CCCc1c(OCCCCCOc2ccc3ccc(OCC(=O)O)cc3c2C(C)=O)ccc(C(C)=O)c1O
91 to 92	Cc1onc(-c2ccc(Cl)cc2)c1CCl
147 to 148	CC(=O)c1cc(NC(=O)NCCCN(CCCNC(=O)Nc2cc(C(C)=O)cc(C(C)=O)c2)CCCNC(=O)Nc2cc(C(C)=O)cc(C(C)=O)c2)cc(C(C)=O)c1
55 to 57	CCc1cccc(Nc2nc(NCc3ccc(C)o3)nc(OCC(F)(F)F)n2)c1
237 to 238	Cc1ccc2c(c1C#N)c(Sc1ccc(Cl)cc1)c(C)n2CC(=O)O
99 to 100	COc1cc(-c2ccccc2)nc(-c2ccc(C)cc2)n1
200 to 205	CC(=O)NC[C@H]1CN(c2cc(F)c(N3CCC(n4nnc(N5CCN(C(C)=O)CC5)n4)CC3)c(F)c2)C(=O)O1
110 to 115	CNC(=O)N1CCC(Oc2ccc([N+](=O)[O-])cc2)(c2ccccc2)CC1
88	O=Cc1nn(-c2cccc(C(F)(F)F)c2)c2c1CCCC2
161 to 163	CP1(=O)c2ccccc2CN1c1cccc(C(F)(F)F)c1 (stereo unspecified)
100 to 101	COC(=O)N(c1cc(C)ccc1C#N)C(C)C

melting point [°C]	Structure (SMILES)
226 to 228	O=C(O)C1CC1c1cc(=O)c2cc(-c3ccccc3)ccc2o1 (stereo unspecified)
272 to 273	CN(C)C(=O)c1nc(-c2cnccn2)nc2c1c1ccc(Cl)cc1n2C
138 to 140	COCc1nc(C(C)(C)O)c(C(=O)OCc2oc(=O)oc2C)n1Cc1ccc(-c2ccccc2-c2nnn[nH]2)cc1
95 to 97	O=C1N(CC2CCN(c3ccccn3)CC2)c2ccccc2C12COc1cc3c(cc12)OCO3 (stereo unspecified)
142	O=C1CN(SC(Cl)(Cl)Cl)C(=O)N1SC(Cl)(Cl)Cl
215 to 218	COc1ccc(NC(=O)c2ccc(Cl)c(Cl)c2)cc1[N+](=O)[O-]
88 to 89	COc1ccc(CC(=O)O)cc1OCCc1ccccc1
154 to 157	CCCCc1nc(Cl)c(C=O)n1Cc1ccc(-c2nnn(C(c3ccccc3)(c3ccccc3)c3ccccc3)n2)cc1
100 to 104	CCCCC1(c2ccc(-c3ccccc3)cc2)CC(O)=C(SCCc2ccccc2)C(=O)O1 (stereo unspecified)
63 to 68	CC1(C)CC(c2cccc(C(F)(F)F)c2)c2ccc(O)cc2O1 (stereo unspecified)
183 to 185	Cc1cc(-c2cccnc2)n2ncnc2n1
63 to 64	CC(=O)OC[C@H]1CCn2c(cc3ccccc32)C1
208 to 211	CCOc1cccc(C(COC)n2nc(C(=O)O)c3c2-c2ccc(OCc4cncnc4)cc2CC3)c1 (stereo unspecified)
65 to 68	COc1cccc(F)c1-c1ccc(NC(=O)OC(C)(C)C)c([N+](=O)[O-])c1
275 to 277	Cc1nccn1Cc1ccc(COc2cccc3c2CN(C2CCC(=O)NC2=O)C3=O)cc1 (stereo unspecified)
205	COc1c(N2CCC(N)C(C)(C)C2)c(F)c(N)c2c(=O)c(C(=O)O)cn(C3CC3)c12 (stereo unspecified)
67 to 69	COc1ccc2c(c1)N(C)C(=O)C2(C)C
210 to 212	CCCCCCc1ncc(/C=C(\Cc2cccs2)C(=O)O)n1Cc1ccc(C(=O)O)cc1
78 to 80	NC(=O)C1=CC=CN(CCc2ccc(Cl)s2)C1Oc1ccc(F)cc1 (stereo unspecified)
238 to 240	CS(=O)(=O)Nc1cc2occc(=O)c2cc1Oc1ccccc1N
126 to 128	COc1cccc2c1cc(SCCC(=O)O)n2C
146 to 147	CCN(CC)C(=O)COc1nc2cc(OC)cc(OC)c2cc1-c1ccc(OC)cc1

melting point [°C]	Structure (SMILES)
186	CCCCNC(=O)NCCCn1c(CCCC)nc2c(N)nc3ccccc3c21
61 to 62	CC(C)(CN1CCN(C(=O)c2ccc(OC(=O)Cc3ccccc3Nc3c(Cl)cccc3Cl)cc2)CC1)SN=O
195 to 197	CNC(=O)c1ccc(C2C(C(=O)c3ccc(C)cc3)=C(O)C(=O)N2c2ncc(S(=O)(=O)c3ccc([N+](=O)[O-])cc3)s2)cc1 (stereo unspecified)
187 to 188	O=C(O)c1cccc(-c2ncco2)c1
140 to 141	CCC(C)(C)c1ccc(OCCCNC(=O)c2cc(OS(=O)(=O)CCCOc3ccc([N+](=O)[O-])cc3)c3ccccc3c2O)c(C(C)(C)CC)c1
168 to 169	CC(C)C(=O)CCC(C)C1CCC2(C#N)C3=CCC4CC(OC(=O)c5ccccc5)CCC4(C)C3CCC12C (stereo unspecified)
222 to 224	CCn1cc(C(=O)O)c(=O)c2cc(F)c(N3C[C@@H](N)[C@@H](C)C3)c(Cl)c21 (relative stereo)
236	Cc1ccc(NC(=O)c2c(Cl)cccc2Cl)c2nccc(-n3ccnc3)c12
118	CC(C)(C)OC(=O)COC(=O)CCc1c(OCC(=O)OC(C)(C)C)ccc2ccc(OCC(=O)OC(C)(C)C)cc12
84 to 86	COc1ccc(Nc2nc(NC3CCCCCC3)nc(OCC3CCCN3)n2)cc1Cl (stereo unspecified)
133 to 134	CN(C)NC(=O)N1CCC(=Cc2cc(C(C)(C)C)c(O)c(C(C)(C)C)c2)C1=O
65 to 67	CN(CCCNC(=O)NCCCOc1cccc(CN2CCCCC2)c1)CCC(c1ccc(F)cc1)c1ccccn1 (stereo unspecified)
54 to 57	COP(=O)(Cc1c(C)ccc2ccccc12)OC
116 to 118	Nc1ccc(Cl)cc1C(=O)NCCCn1cncn1
70 to 71	O=C(O)CCCc1ccc(CCNS(=O)(=O)c2ccccc2)cc1
228	Cn1c(/C=C/C=O)c(-c2ccccc2)c2ccccc2c1=O
226 to 228	CC(C)(C)c1cc(C=Cc2cc(C=Cc3cc(C(C)(C)C)cc(C(C)(C)C)c3)cc(CO)c2)cc(C(C)(C)C)c1
190	COc1ccccc1CC(=N)N1C[C@@H]2C(=O)CCC(c3ccccc3)(c3ccccc3)[C@@H]2C1
66 to 67	CCCCCCC1(CCCCCC)c2cc(Cl)ccc2-c2ccc(Cl)cc21
134 to 135	O=Cc1ccccc1OC(=O)C(=O)Oc1ccccc1C=O

Structure (SMILES)	melting point [°C]
C[C@@H]1C(=O)C[C@H]2C[C@@H]1OO[C@@]2(C)/C=C\c1ccccc1	60
Nc1noc(C23CCCN(C2)C3)n1	167 to 170
